Data taken from patent US20240158442A1, “MULTIFUNCTIONAL POLYPEPTIDE AND APPLICATION THEREOF IN FIELD OF MEDICINES” (Wuhan Innerse Pharmaceutical Inc., priority 2021, published 2024).
Square brackets hold non-standard residues; d marks the D form. Ends that are not written are not given here. βAla = NCCC(=O)O

What was measured:
[1] = system: rat cerebral ischemic stroke (MCAO, reperfusion 120 min after ischemia); test: Dose-effect experiment, suture-embolized MCAO ischemia-reperfusion model, TTC staining, cerebral infarction size (Example 6); type: in vivo, Sprague-Dawley (SD) rats; details: for Infarct size (infarct tissue weight as percentage of whole brain weight): model control 24.84 ± 3.39
From the text: Preparation method: an amount of test substance was weighted and fully dissolved using water for injection to the required concentration, and was filtered with a 0.22 μm filter to sterilize.
Animal strain: Sprague-Dawley (SD) rats; grade: SPF grade. Body weight: 200.01-240.03 g when the accommodation started, 213.79-278.79 g when grouping. Age: about 5-7 weeks old during the accommodation, and 6-8 weeks old when grouping. Source: SPF (Beijing) Biotechnology Co., Ltd., Beijing, China.
A. Isolating and exposing blood vessels: the skin of the surgical area was shaved, and the rat was placed under a surgical microscope. The skin of the rat was cut along the midline with ophthalmic scissors, with a cut of about 2 cm length. Through the right neck of the rat, the muscle tissue of the right neck was bluntly isolated and opened with a microforcep to expose the right common carotid artery (CCA), and then isolated upward along the common carotid artery to further expose the external carotid artery (ECA) and internal carotid artery (ICA);
B. The ECA was ligated and the ICA was temporarily clamped; the proximal end and distal end of CCA were threaded separately, the distal end was tied tightly and the proximal end was tied with a loose knot, and a small incision was made between the two threads;
Inserting the suture emboli: A No. 4-0 suture emboli was inserted through the incision of CCA, pushed slowly and gently into the internal carotid artery, and stopped at the artery clamp of ICA, the pre-set thread was tied tightly (to avoid severe bleeding when pushing the suture emboli), then the artery clamp that blocked the blood flow of ICA was removed, and the suture emboli was immediately pushed into ICA until entering into the cranium. […]
D. Fixing the suture emboli and suturing the incision: if one felt slight resistance when the suture emboli was inserted about 18 mm depth from the bifurcation of the common carotid artery, it means that the tip of the suture emboli has entered into the cerebral anterior artery (ACA), and the side wall of the suture emboli has blocked the opening of the middle cerebral artery; at the moment, the insertion was terminated and the time was recorded. […]

[2] = system: rats with cerebral ischemia (middle cerebral artery occlusion, MCAO); test: MCAO rat model of cerebral ischemia, TTC staining, cerebral infarct volume (Example 5); type: in vivo, SD rats; details: for infarct volume (TTC quantification), mean value: 3 mg/kg via tail vein 1-2 h after suturation, TTC after 22-24 h, 6 rats per group; for infarct volume (TTC quantification), rat No. 1: individual animal No. 1; for infarct volume (TTC quantification), rat No. 2: individual animal No. 2; for infarct volume (TTC quantification), rat No. 3: individual animal No. 3; for infarct volume (TTC quantification), rat No. 4: individual animal No. 4; for infarct volume (TTC quantification), rat No. 5: individual animal No. 5; for infarct volume (TTC quantification), rat No. 6: individual animal No. 6
Procedure: (§1) In order to determine the application of the synthetic peptides provided by the present invention in neurological diseases, the present invention uses SD rats as experimental objects, and performs middle cerebral artery occlusion method (MCAO) to prepare rat model of cerebral ischemia. These rats were injected drugs intravenously 1-2 hours after ischemia, and a behavioral observation and scoring was conducted for each animal after 22-24 hours. After the behavioral observation, the experimental rats were euthanized and their brains were removed, cut to sections and stained with TTC for quantitative analysis, and the cerebral infarct volume % was calculated.
• Small-animal monitor: VT200 from Rongxianda Technology Co., Ltd., Shenzhen, China. • SD rats: 180-200 g, from China National Institutes for Food and Drug Identification. • Suture emboli: Maiyue Bio (M8507). • TTC staining solution: Yuanye Bio (R24053).
(§2) The experimental SD rat was weighed and anesthetized with chloral hydrate. After anesthesia, the limbs of the rat were fixed, and the rat was placed in a supine position, connected to the small-animal monitor, and monitored for important physiological parameters such as body temperature, blood pressure and heart rate, etc. The rat's neck was shaved and disinfected with 75% alcohol cotton ball. A middle incision of about 2 cm length was then made on the neck of the experimental rat, and the submandibular gland of the rat was bluntly separated while avoiding damage to the gland. Then, the left common carotid artery (CCA) of the experimental rat was bluntly separated, and the internal carotid artery (ICA) and external carotid artery (ECA) were carefully separated upward along the CCA. Any damage to vagus nerves was avoided during the separation. The CCA and ICA were clamped respectively with two artery clamps, and the distal end of the ECA was cut off and a silicone suture emboli was inserted into the ECA “port” to the ICA artery clamp, then the artery clamp was quickly loosened and the tip of the suture emboli was put in through the artery clamp quickly before clamping the ICA again. This step was repeated and the suture emboli was put in further until the black mark of the suture emboli reached the bifurcation of the ECA and ICA, and the tip of the suture emboli blocked the middle cerebral artery and then the ECA “port” and the suture emboli was tied tightly using a thread in order to prevent the “escape” of suture emboli or bleeding after the rat waked up. The artery clamps on the CCA and ICA were then loosed and removed to restore the tissue to its original position, and an appropriate amount of penicillin was applied to prevent wound infection. A medical suture needle with thread was used to suture, and the wound was disinfected using povidone-iodine again after the suturation. The experimental rats were monitored with the small-animal monitor to evaluate if their physiological parameters were normal, and the rats were placed on a small-animal electric blanket to keep their body temperature until they waked up, and placed in animal cages.
(§3) The drug to be tested was prepared as 3 mg/mL solution. The drug was dosed via tail vein 1-2 h after the suturation.
(§4) During the drug administration, the rat was fastened with a fastening device, and the drug to be tested was injected into the tail vein of the rat at 3 mg/kg using 1 mL syringe, the drug was injected slowly to reduce the cardiopulmonary load of the experimental rat.
(§5) The animals were divided into different test groups, with 6 rats for each group. Model group: After the suturation, an equal amount of normal saline was given via tail vein; Drug groups S1 (NA1), S4 (β-Ala-His-Lys-Ala-Pro) and S5 (Pro-Ala-Lys-β-Ala-His): administered via tail vein after the suturation;
After the behavioral observation, experimental rats were euthanized and their brains were removed. […]

[3] = system: patients with acute ischemic stroke (AIS) undergoing endovascular thrombectomy; details: intravenous injection 2.6 mg/kg; cited from earlier work
[4] = system: experimental cerebral ischemia-reperfusion in animals (cynomolgus monkeys); details: preclinical ischemic stroke model; cited from earlier work
[5] = system: rat cerebral ischemic stroke (MCAO, reperfusion 120 min after ischemia); test: Dose-effect experiment, MCAO ischemia-reperfusion model, rat neurological function score (NSS); type: in vivo, Sprague-Dawley (SD) rats; details: 3 mg/kg i.v., D 2 = 1 day after surgery, model control 8.62 ± 0.84
Procedure: The establishment of rat model: the rats were placed in an anesthesia induction box filled with 3.0% isoflurane for anesthesia induction. Anesthesia-induced animals were transferred to the operating table, and anesthesia was maintained with 2.0%˜2.5% isoflurane at 200 mL/min using a small-animal gas anesthesia machine, and the eyelid reflex and pain response of the rats were observed. The surgery can be started only after the eyelid reflex response and the pain response on limbs and tail disappeared. […]
• Measurement time: 24 hours before and after modeling; • Animals measured: all the surviving experimental animals planned to be measured; • Measurement method: a motor function test, sensory test, balance test, and reflex and abnormal behavior test were performed on animals, according to the rat neurological function score scale (NSS) for details.
The main purpose of clinical treatment for cerebral infarction is to restore the patient's neurological function as much as possible and to improve the quality of life after stroke. In this experiment, the animals were evaluated with Bederson scoring 1 hour after ischemia to evaluate the ischemia in animals. One day after modeling, the neurobehavioral function of animals was evaluated with NSS scoring scale in order to evaluate the effect of test substance in improving the neurological function of animals.

[6] = Dose-effect experiment, body weight of MCAO model animals; details: 3 mg/kg i.v.; D 2 = 1 day after surgery
Procedure: Measurement time: the body weight was measured at least twice during the accommodation, and each batch of rats were weighed once on the day before the surgery and on the day of dissection to calculate the amount of drug administered and the anesthetic applied; the body weight was measured twice a week after the surgery.
The effect of test substance on the weight of model animals: cerebral ischemia-reperfusion is an acute injury model, wherein the weight of experimental animals will drop dramatically after MCAO modeling. Thus, the weight of experimental animals is one of the most basic sensitive parameters to comprehensively reflect the health status of animals.

[7] = system: rats with cerebral ischemia (middle cerebral artery occlusion, MCAO); test: MCAO rat model of cerebral ischemia, behavioral observation and scoring (Example 5); type: in vivo, SD rats; details: 3 mg/kg via tail vein; for behavioral score, rat No. 1: individual animal No. 1; for behavioral score, rat No. 2: individual animal No. 2; for behavioral score, rat No. 3: individual animal No. 3; for behavioral score, rat No. 4: individual animal No. 4; for behavioral score, rat No. 5: individual animal No. 5; for behavioral score, rat No. 6: individual animal No. 6; for behavioral score, mean value: scored 22-24 h after suturation, scale 0-5, 6 rats per group
Procedure: as §1, §2, §3, §4, §5
The behavioral observation and scoring were performed on each animal 22-24h after the suturation.

[8] = 3 mg/kg i.v. once within 10 min after reperfusion, TTC 24 h after treatment
[9] = listed as β-Ala-His-Lys-Ala-Pro

YGRKKRRQRRRKLSSIESDV [Example S1, nerinetide]
Infarct weight [1, 8]: 0.24 ± 0.02 g
Infarct size (infarct tissue weight as percentage of whole brain weight) [1, 8]: 16.74±3.14%
Infarct size (infarct tissue weight as percentage of whole brain weight) ([1]; 3 mg/kg i.v. once within 10 min after reperfusion, TTC 24 h after treatment, listed as Positive drug): 16.74 ± 3.14 %
Inhibition rate of cerebral infarction ([1]; 3 mg/kg i.v., calculated from infarct size versus model control group): 33%
infarct volume (TTC quantification), mean value [2]: 0.157
infarct volume (TTC quantification), mean value ([2]; listed as NA1): 0.157±0.040
infarct volume (TTC quantification), rat No. 1 ([2]; 3 mg/kg via tail vein): 0.187
infarct volume (TTC quantification), rat No. 2 ([2]; 3 mg/kg via tail vein): 0.218
infarct volume (TTC quantification), rat No. 3 ([2]; 3 mg/kg via tail vein): 0.153
infarct volume (TTC quantification), rat No. 4 ([2]; 3 mg/kg via tail vein): 0.145
infarct volume (TTC quantification), rat No. 5 ([2]; 3 mg/kg via tail vein): 0.107
infarct volume (TTC quantification), rat No. 6 ([2]; 3 mg/kg via tail vein): 0.134
patient's prognosis [3]: improved patient's prognosis
functional prognosis [4]: improve the functional prognosis
infarct size of experimental cerebral ischemia-reperfusion [4]: reduce the infarct size
NSS score D 2 ([5]; listed as Positive drug): 8.00 ± 0.76
NSS score D 2 ([5]; listed as positive control): 8.00±0.76
Weight D 2 [6]: 203.7 ± 10.94 g
behavioral score, rat No. 1 [7]: 2 points
behavioral score, rat No. 2 [7]: 2 points
behavioral score, rat No. 3 [7]: 2 points
behavioral score, rat No. 4 [7]: 2 points
behavioral score, rat No. 5 [7]: 1 points
behavioral score, rat No. 6 [7]: 3 points
behavioral score, mean value [7]: 2.0 points
behavioral score, mean value ([7]; listed as NA1): 2.0±0.6 points

β-Ala-His-Lys-Ala-Pro ([βAla]HKAP) [Example S4]
infarct volume (TTC quantification), mean value [2]: 0.155
infarct volume (TTC quantification), mean value [2, 9]: 0.155±0.044
infarct volume, statistical comparison with S1 ([2]; 3 mg/kg via tail vein, compared with S1 (NA1) 3 mg/kg): not statistically different from S1
infarct volume (TTC quantification), rat No. 1 ([2]; 3 mg/kg via tail vein): 0.233
infarct volume (TTC quantification), rat No. 2 ([2]; 3 mg/kg via tail vein): 0.157
infarct volume (TTC quantification), rat No. 3 ([2]; 3 mg/kg via tail vein): 0.137
infarct volume (TTC quantification), rat No. 4 ([2]; 3 mg/kg via tail vein): 0.171
infarct volume (TTC quantification), rat No. 5 ([2]; 3 mg/kg via tail vein): 0.118
infarct volume (TTC quantification), rat No. 6 ([2]; 3 mg/kg via tail vein): 0.116
behavioral score, statistical comparison with S1 ([7]; compared with S1 (NA1) 3 mg/kg): not statistically different from S1
behavioral score, rat No. 1 [7]: 3 points
behavioral score, rat No. 2 [7]: 2 points
behavioral score, rat No. 3 [7]: 3 points
behavioral score, rat No. 4 [7]: 2 points
behavioral score, rat No. 5 [7]: 1 points
behavioral score, rat No. 6 [7]: 1 points
behavioral score, mean value [7]: 2.0 points
behavioral score, mean value [7, 9]: 2.0±0.9 points
